Consider 19 compounds from PubChem BioAssay (NCI).

What all share (assay): NCI anticancer screen, dose series, 48 h
The test system of assay [1] is COLO 205 colon.
Assay [2] deals with DLD-1 colon.
In assay [3] the test system is DMS 114 small cell lung.
Assay [4] has as its system HOP-18 NSCLC.
The test system of assay [5] is HOP-92 NSCLC.
Assay [6] deals with M19-MEL melanoma.
Assay [7] relates to OVCAR-3 ovarian.
The subject of assay [8] is RXF 393 renal.
In assay [9] the test system is SF-295 CNS.
The test system of assay [10] is SW-620 colon.
The test system of assay [11] is UO-31 renal.
Assay [12] relates to XF 498 CNS.
In assay [13] the test system is MDA-N.

The structures appear in SMILES notation.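 Test compounds were applied to cells in 96-well plates for 48 hours at 5 doses. GI50 = concentration required for 50% inhibition of growth. TGI denotes the concentration required for complete inhibition of growth.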

As to `CN(C)CCNC(=O)c1cccc2c1C(=O)c1ccccc1C2=O`, the TGI was 34.2 µM in assay [1]; over 77.6 µM in assay [2]; 32.8 µM in [3]; over 100 µM in assay [4]; over 73.7 µM in [5]; 41.7 µM in assay [6]. In addition, the TGI in assay [7] is 52.4 µM; in assay [8], over 100 µM; in assay [9], over 100 µM; in [10], over 91.3 µM; in assay [11], over 100 µM; in assay [12], over 100 µM.

As for `Nc1nnc(N)n1N`, the TGI in assay [1], in [2], in assay [3], in assay [5], in assay [6] and in [8] was over 100 µM in each case. The TGI in assay [9], in assay [10], in [11] and in assay [12] was over 100 µM each time.

Turning to `COc1cc(/C=C/c2ccc(OC)c(OC)c2)oc(=O)c1`, the TGI in assay [1], in assay [2], in assay [3], in [4], in assay [5] and in [6] was over 250 µM each time. The TGI in assay [7] was over 250 µM; in assay [8], over 216 µM; in [9] it was over 250 µM; in assay [10], over 250 µM; in [11] it was over 250 µM; in [12] it was over 250 µM.

With `CCO/N=C\c1ccc2oc(-c3ccccc3)cc(=O)c2c1`, the TGI in [1] turned out to be 0.526 µM; in assay [5], 31.5 µM; in assay [13], 0.105 µM; in assay [7] it was 0.913 µM; in assay [8], 11.6 µM; in assay [9], 16.3 µM. Besides, the results for the TGI in assay [10] and in assay [11] were over 100 µM and 5.83 µM, respectively.

In the case of `C/C(Cc1ccc2c(c1)OCO2)=N\N=c1\sc2ccccc2n1C`, the TGI in assay [1], in assay [5], in assay [13], in assay [7], in assay [8] and in [9] was over 100 µM in each case. Moreover, the TGI in assay [10] and in [11] was over 100 µM in each case.

Regarding `COC(=O)[C@@]12CSC[C@]1(C(=O)OC)N[C@@H](c1ccccc1O)C2`, the TGI in [1], in assay [5], in [13], in assay [7], in [8] and in assay [9] was over 100 µM each time. Besides, the TGI in [10] and in assay [11] was over 100 µM in each case.

For `Cc1[nH]n(-c2nc(-c3ccccc3)cc(=O)[nH]2)c(=O)c1CCO`, the TGI in assay [1], in [5], in assay [13], in assay [7], in assay [8] and in assay [9] was over 100 µM each time. Also, the TGI in assay [10] and in assay [11] was over 100 µM in each case.

Regarding `CC(C)(C)OC(=O)NC(CSCc1ccc(C(=O)c2ccccc2)cc1)C(=O)N1CCN(CCCCN2c3ccccc3Sc3cc(N=[N+]=[N-])ccc32)CC1` (centres undefined), the TGI in [1], in [5], in [13], in [7], in assay [8] and in assay [9] was over 100 µM throughout. Also, the TGI in assay [10] and in [11] was over 100 µM each time.

Turning to `ClCCCN1CCN(CCCl)CC1`, the TGI was 468 µM in [1]; 319 µM in [2]; 203 µM in assay [3]; over 1000 µM in [4]; 773 µM in assay [6]; 742 µM in assay [13]. Further, the TGI is 430 µM in assay [7]; 439 µM in assay [8]; 456 µM in [9]; over 873 µM in assay [10]; 493 µM in assay [11]; 147 µM in assay [12]. The GI50 was 0.0248 µM in assay [5]; 84.3 µM in [7]; 40.8 µM in assay [9]; 83.7 µM in assay [10]; 56.4 µM in assay [11].

Take `O=C(O)c1ccc2c(O)c(O)ccc2c1`: the TGI was over 64 µM in assay [1]; over 84.3 µM in [5]; 38.5 µM in [13]; 34.5 µM in assay [7]; 42.5 µM in [8]; 33.5 µM in assay [9]. For the same compound, the TGI in [10] is over 100 µM; in [11], 41.4 µM.

In the case of `COc1cc2ncnc(NS(=O)(=O)c3cc4ccccc4s3)c2cc1OC`, the TGI in assay [1], in assay [5], in [13], in assay [7], in [8] and in [9] was over 100 µM each time. For the same compound, the TGI in assay [10] and in assay [11] was over 100 µM throughout.

Consider `CCN(CC)Cc1cc(N=Nc2c(O)ccc3c(N=Nc4ccc(O)c(CN(CC)CC)c4)c(O)ccc23)ccc1O`, for which the TGI in [1] was 3.6 µM; in assay [5], 22.8 µM; in [13], 18 µM; in [7], over 20.7 µM; in assay [8], over 23.1 µM; in assay [9] it was 20 µM. Also, the figures for the TGI in assay [10] and in assay [11] were 15.2 µM and 6.96 µM, respectively.

As to `CCC1(O)C(=O)OCc2c1cc1n(c2=O)Cc2cc3cc4c(cc3nc2-1)OCO4` (centres undefined), the TGI in assay [1] is 1.79 µM; in assay [2], over 60.3 µM; in assay [3], 0.0284 µM; in assay [4], 0.824 µM; in assay [5], 0.6 µM; in [6], 0.205 µM. The TGI in assay [7] was 0.589 µM; in assay [8], 0.0578 µM; in assay [9], 0.198 µM; in assay [10], 18.7 µM; in [11] it was 0.0512 µM; in [12], 0.225 µM.

`COc1ccc(-c2cc(-c3ccc(C)cc3)n(C3OC(COC(C)=O)C(OC(C)=O)C(OC(C)=O)C3OC(C)=O)c(=S)c2C#N)cc1` (centres undefined): the TGI in [1], in [5], in assay [13], in [7], in assay [8] and in assay [9] was over 100 µM in each case. In addition, the TGI in assay [10] and in assay [11] was over 100 µM throughout.

As to `Cc1ccc(C(=O)Nc2ccc(S(=O)(=O)O)c3cc(S(=O)(=O)O)cc(S(=O)(=O)O)c23)cc1NC(=O)c1cccc(NC(=O)Nc2cccc(C(=O)Nc3cc(C(=O)Nc4ccc(S(=O)(=O)O)c5cc(S(=O)(=O)O)cc(S(=O)(=O)O)c45)ccc3C)c2)c1`, the TGI in assay [1] was over 100 µM; in assay [2] it was over 100 µM; in assay [3], over 100 µM; in assay [4], over 93.3 µM; in [5] it was over 100 µM; in assay [6] it was over 100 µM. Besides, the TGI in [13] is over 100 µM; in assay [7], over 100 µM; in assay [8], over 100 µM; in assay [9], over 100 µM; in [10] it was over 100 µM; in assay [11] it was 87.3 µM. In assay [12], this compound had a TGI of 90.5 µM.

Turning to `CC1=NNC(=O)C1C1(C(=O)O)CC(c2c[nH]c3ccccc23)=NC(=S)N1` (centres undefined), the TGI was 34.1 µM in assay [1]; over 100 µM in assay [5]; over 100 µM in assay [13]; 65.8 µM in assay [7]; 94.3 µM in assay [8]; 91.1 µM in assay [9]. Moreover, the TGI in assay [10] and in assay [11] was over 100 µM each time.

Take `O=C(CCCc1cccc2[nH]c3c(c12)CN(Cc1ccccc1)CC3)c1ccc(F)cc1`: the TGI is 31.4 µM in [1]; over 100 µM in [5]; over 100 µM in assay [13]; over 100 µM in [7]; over 100 µM in assay [8]; over 100 µM in [9]. Besides, the TGI in [10] and in assay [11] was over 100 µM throughout.

Take `COc1ccc(C2CC(c3sc(Nc4ccc(C)cc4)nc3C)=NN2)cc1` (centres undefined): the TGI was 26.9 µM in assay [1]; 35.7 µM in assay [2]; 30 µM in assay [3]; 35.4 µM in assay [4]; 30.3 µM in [5]; over 59 µM in [6]. The TGI in [7] amounted to 30.1 µM; in assay [8], 27.1 µM; in [9] it was 30.5 µM; in assay [10], 38.2 µM; in assay [11], 29.4 µM; in assay [12], 36.7 µM.

Turning to `COc1ccc(-c2c(C#N)c(N)[nH]c(=S)c2C#N)cc1`, the TGI is over 100 µM in [1]; over 100 µM in assay [5]; 28.5 µM in [13]; over 100 µM in assay [7]; 98.3 µM in assay [8]; over 100 µM in assay [9]. Further, the TGI in assay [10] and in assay [11] was over 100 µM throughout.
